These results are taken from US20250114313A1, “OLIGO-BENZAMIDE ANALOGS AND THEIR USE IN CANCER TREATMENT” (BOARD OF REGENTS, THE UNIVERSITY OF TEXAS SYSTEM, priority 2022, published 2025).

Each structure is given as a SMILES string.

The test system of data set [1] is four distinct TNBC PDXs. Put plainly: TNBC PDXs in mammary fat pad. It is filed as in vivo, mice. Particulars: daily oral, 10 mg/kg/day. As for the experimental part:
(§1) Animal Studies: All animal experiments were performed using UTHSA and UTSW IACUC approved protocols. For cell based xenograft tumor assays, TNBC cells (2×10^5-2×10^6) were mixed with an equal volume of matrigel and implanted in the mammary fat pads of 6-week-old female athymic nude mice as described^33. BALB/c mice were used for D2A1 syngeneic model. Once tumors reached measurable size, mice were divided into control (vehicle) and ERX-41 (10 mg/kg/oral) treatment groups. Mice bearing TNBC PDX tumors were purchased from Jackson laboratory (TM00089; TM00096; TM00098). TNBC PDX line UTPDX0001 establishment was earlier described^38. WHIM-20 ER+PDX model was purchased from Horizon Labs. OCa-PDX-38 was received from UTHSA ObGyn tissue procurement core. When tumors reached ˜750 mm^3 they were dissected into 2 mm^3 pieces and implanted into the mammary fat pads of 6 weeks old female SCID or NSG mice. When the tumor volume reached ˜200 mm^3, mice were randomized for treatment. The mice were monitored daily for adverse toxic effects and tumor volume was measured every 3-4 days using calipers. For establishing ES2 tumors, ES2/GFP/LUC cells were injected i.p. and tumors were measured twice a week using Xenogen in vivo imaging system. […] The mice were monitored daily for adverse toxic effects. […] The sections were scored by two independent evaluators blinded to the patient's clinical status.

Data set [2] concerns SUM-159 cells with LIPA-KO reconstituted with LIPA constructs. Put plainly: Response of SUM-159 LIPA KO cells reconstituted with LIPA constructs (CellTiter-Glo, western, RT-qPCR). It is filed as cell-based, Human. As to the method:
(§2) Cell viability assays: Cells were seeded in 96-well plates (2×10^3 cells/well) one day before the treatment. Cells were treated with varying concentrations of ERX-41 or ERX-11 analogs for 3-6 days. Then effects of ERX-41 or ERX-11 analogs on cell viability were measured in triplicate or sextuplicate with multiple biological replicates using the WST-1 (Promega), MTT as previously described^33 or CellTiter-Glo 2.0 (Promega) assays.
Lentiviral constructs cloning: LentiCRISPRv2 vector was used for CRSPR KO experiments. sgRNAs, which were chosen from human CRISPR knockout pooled library, were cloned into lentiCRISPRv2 vector^34. Human LIPA cDNA (GenBank: BC012287) or mouse LIPA cDNA (NM_021460) were clone into pWPI for over expression experiments. For TurboID experiment, the LIPA-TurboID sequence was cloned into pCW57-MCS1-2A-MCS2 vector. LentiCRISPR v2 was purchased from Addgene (Addgene #52961; //n2t.net/addgene:52961; RRID:Addgene_52961) (via Feng Zhang). pWPI was purchased from Addgene (Addgene #12254; //n2t.net/addgene:12254; RRID:Addgene_12254) (via Didier Trono). pCW57-MCS1-2A-MCS2 was purchased from Addgene (#71782) (via Adam Karpf). Human LIPA gene is referred as LIPA, while mouse LIPA gene is referred as mLIPA in this disclosure. Since LIPA overexpression was introduced in LIPA CRISPR KO background, to avoid being targeted by CRISPR-cas9, the LIPA sgRNA target sequence including PAM, tt aac cga att cct cat ggg agg, was mutated to tt aac cga att cct caC ggA agA in all of the LIPA overexpression constructs without protein coding change. In-Fusion Cloning kit (Takara) was used to generate different mutants of LIPA.
Western blotting: Whole cell lysates from breast cancer cells were prepared with 2× sample buffer (60 mM Tris-HCl, pH 6.8, 2% sodium dodecyl sulfate, 10% glycerol), and before loading mixed with loading buffer (5% 2-mercaptoethanol, 0.1% bromophenol blue) and boiled for denaturation, as previously described.^33 Proteins were separated by SDS-PAGE and subjected to Western analysis using antibodies. To detect nascent translated proteins, puromycin (final concentration 10 μg/mL) was added into cell plates 30 minutes before harvesting cells. Then samples were subjected to the Western blotting. Nascent proteins were detected by anti-puromycin antibody.
Real-time quantitative PCR (RT-qPCR): Total RNA was prepared from breast cancer cells using the RNeasy Mini Kit (Qiagen) according to the manufacturer protocols. Subsequently, total RNAs were reverse transcribed into cDNA using iScript Reverse Transcription Supermix (Bio-rad) and by using SYBR Green on an Illumina Real-Time PCR system.
In general terms: In ATP-based viability assays light output follows the ATP content of the culture.

For data set [3], the system named is SUM-159 cells. Put plainly: CellTiter-Glo, SUM-159 WT cells (mCherry-RAMP4). It is filed as cell-based. The following applies: Homo sapiens, SUM159; SUM-159 stably transfected mCherry-RAMP4, CellTiter-Glo. As to the method: as §2
Data set [4] relates to parental SUM-159 xenografts. Put plainly: Parental SUM-159 xenografts. The format is in vivo, SCID mice. As for the experimental part:
Knockout studies: For xenograft knockout tumor models, 1.8×10^6SUM159 parental, or 1.8×10^6SUM159-LIPA KO cells were harvested with 1% trypsin-EDTA, washed and resuspended in sterile PBS. Cells were initially implanted into the mammary fat pads of six-week-old female C.B-17 (SCID) mice purchased from Envigo (Indianapolis, IN, USA). Mice were monitored twice weekly for tumor growth measured by Vernier calipers where tumor volume was calculated by the formula (length×width^2)/2. Tumors were dissected into 2 mm cubes when they reached 800 mm^3 in size and subsequently implanted into the mammary fat pad of twelve SCID female mice. Once tumor fragments reached 150 mm^3 in size, mice were randomly divided into vehicle group (n=6, control, 0.3% Hydroxy cellulose, i.p.) and treatment group (n=6, ERX-41, 10 mg/kg/day/i.p.). Institutional guidelines were followed to determine experimental end points.

Data set [5] can be described thus: Tolerability of daily dosing in mice (pilot MTD). It is filed as in vivo. Particulars: daily oral or intraperitoneal, up to 100 mg/kg. As to the method:
as §1

As a reminder, the IC50 is the midpoint of a concentration-inhibition curve.

For `CC(C)COc1cc(C(=O)Nc2ccc(C(=O)N[C@H]3CC[C@H](C)CC3)cc2OCC(C)C)ccc1NC(=O)c1ccc([N+](=O)[O-])c(OCCO)c1` [ERX-41], in data set [1], the “rates of growth of PDX tumors” value is “significantly decreased the rates of growth of the tumors”. In data set [2] (ER stress and cell death), the “responsiveness with mouse LXXLL sequence or mouse LIPA cDNA” value was “restore responsiveness”. The IC50 in data set [2] (Homo sapiens, SUM159, SUM-159 LIPA-KO + WT-LIPA, read-out: IC50 after reconstitution of WT-LIPA (KO+WT)) is 250 nM; in data set [3], roughly 200 nM. Moreover, the “proliferation and ER stress with LXXLL point mutants” value in data set [2] (KO+L242P, KO+L239P/L242P, KO+L239P/L242P/L243P) is “inability of ERX-41 to affect proliferation or induce ER stress”. For the same compound, the “sensitivity after reconstitution of ΔLXXLL MT-LIPA (KO+ΔLXXLL)” value in data set [2] (lipase-competent mutant) is given as “did not restore sensitivity to ERX-41”. Moreover, the “sensitivity after reconstitution of H274Y MT-LIPA (KO+H274Y)” value in data set [2] (lipase-incompetent mutant) was “restored sensitivity to ERX-41”. Moreover, the “ER stress and proliferation with LIPA with added KDEL sequence” value in data set [2] (localized to the ER) is reported as “restores the ability of ERX-41 to cause ER stress”. For the same compound, the “ER stress and proliferation with LIPA lacking the signal peptide” value in data set [2] (not localized to the ER) is recorded as “nor restore the ability of ERX-41 to cause ER stress”. For the same compound, the “Ki67 staining, parental xenografts” value in data set [4] (at sacrifice) is reported as “decrease in Ki67 staining”. For the same compound, the “response of parental xenografts” value in data set [4] (i.p., 10 mg/kg/day) is listed as “responded significantly”. Moreover, the tolerability entry in data set [5] is listed as “well tolerated by mice, with no clear evidence of toxicity”.
